{"source": "patent US11634452B2", "about": "“Compounds for treating neurodegenerative disorders” (ETHNODYNE, priority 2017, dated 2023)", "system": "primary rat dopaminergic neurons (TH positive neurons) injured with 6-OHDA", "assay": "Neuroprotective effect following exposure to 6-OHDA, with or without pathway inhibitors", "format": "cell-based", "experimental": "This study investigated the mode of action of CR777 on rat primary mesencephalic cultures following exposure to 6-OHDA. The effect of CR777 on level of GDNF and BDNF mRNA was investigated after 24 h 6-OHDA incubation and CR777. The main pathways of survival, regulation of the apoptosis and neuronal growth were investigated in presence of CR777 and inhibitors of these different pathways. The following pathways were investigated using antagonists of different proteins of interest: • RAS (small GTPase)/RAF (proto-oncogene Serine/threonine kinase); • Peroxisome proliferator-activated receptor gamma (PPAR-γ) (nuclear receptor) • The Pi3K/AKT/mTor (cell signaling pathway that plays a key role in cellular homeostasis through its role in regulation of apoptosis, cell growth, cell cycle). • NO (nitric oxide) pathway\nRat dopaminergic neurons were cultured as described in Example 4.\nOn day 6 of culture, the medium was removed and fresh medium was added, without or with 6-OHDA (Sigma, Batch: 083M4624V) at 20 μM diluted in control medium and let for 48 h. In parallel, all inhibitors were solved in culture medium and were added 2 h before the 6-OHDA application (namely 1 h before test compounds application).\nCR777 was solved in DMSO at 10 mM, diluted in culture medium and then pre-incubated with mesencephalic neurons 1 hour before the 6-OHDA application (48 h). 6 wells per condition were assessed.\nFor survival and α-syn aggregation, compound was tested on 1 culture in a 96 well-plate (6 wells per condition), was pre-incubated 1 hour before 6-OHDA and let for 48 hours.\nThe following conditions were assessed: • Control (culture medium) • +6-OHDA (20 μM, 48 h) • +6-OHDA (20 μM, 48 h)+CR777 1 μM • +6-OHDA (20 μM, 48 h)+CR777 100 nM • +6-OHDA (20 μM, 48 h)+CR777 10 nM • +6-OHDA (20 μM, 48 h)+CR777 1 nM\nFor pathway investigation, the compound was tested on one primary dopaminergic culture in 96 well plates (6 wells per conditions).\nInhibitors were pre-incubated for 2 hours before 6-OHDA application and CR777 was pre-incubated 1 hour before 6-OHDA application.\nThe antagonists/inhibitors used in the experiments are the following: • FTS: farnesylthiosalicylic acid selectively disrupts the association of chronically active Ras proteins with the plasma membrane. • BEZ-235: dual PI3K/mTOR inhibitor. • T0070907: selective PPAR-γ antagonist • L-NAME (Nitro-L-arginine methyl ester): precursor to NOS inhibitor, L-NNA—requires bioactivation to become a fully functional inhibitor. • ABT-199: selective inhibitor of Bcl-2.\n48 hours after intoxication, the cell culture supernatant was taken off and the dopaminergic neurons were fixed by a solution of 4% paraformaldehyde in PBS, pH=7.3 for 20 min at room temperature.\nAfter permeabilization with 0.1% of saponin, cells were incubated for 2 hours with:\nmonoclonal Anti-Tyrosine Hydroxylase (TH) antibody produced in mouse at dilution of 1/10000 in PBS containing 1% FCS, 0.1% saponin,\npolyclonal anti-α-syn antibody produced in rabbit at dilution of 1/200 for 2 h at room temperature.\nFor each condition, 20 pictures/well (representative of ˜the all well area) were automatically taken using ImageXpress (Molecular Devices) with 10× magnification. All images were taken with the same conditions. Analysis were automatically performed by using Custom Module Editor (Molecular Devices).\nThe following endpoint was investigated for each culture well: • The total dopaminergic neuron survival (TH staining), • The total area of α-syn on TH positive neuron (overlapping α-syn/TH)\nAfter permeabilization with 0.1% of saponin, cells were incubated for 2 hours with monoclonal Anti-Tyrosine Hydroxylase (TH) antibody produced in mouse at dilution of 1/10000 in PBS containing 1% FCS, 0.1% saponin, for 2 h at room temperature.\nThe total dopaminergic neuron survival (TH staining) was investigated for each culture well.", "note": "“Also recorded” adds a separate entry of the source."}
{"smiles": "CC1=C(CO)C(=O)O[C@@H]([C@@H](C)[C@H]2CCC3C4C[C@H](SC[C@H](NC(=O)CC[C@@H](N)C(=O)O)C(=O)NCC(=O)O)[C@]5(O)[C@@H](O)C=CC(=O)[C@]5(C)C4CC[C@@]32C)C1", "note": "(some centres unmarked) [CR777]", "values": [{"measurement": "neuroprotective effect (TH neuron survival) in presence of Bcl2 pathway inhibitor", "setting": "CR777 10 nM + ABT 199 (5 μM), 6-OHDA 20 μM", "value": "did not induce any changes"}, {"measurement": "neuroprotective effect (TH neuron survival) in presence of PI3K/AKT/mTOR pathway inhibitor", "setting": "CR777 10 nM + BEZ235 (40 nM), 6-OHDA 20 μM", "value": "fully abolished"}, {"measurement": "neuroprotective effect (TH neuron survival) in presence of Ras/Raf pathway inhibitor", "setting": "CR777 10 nM + FTS (4 μM), 6-OHDA 20 μM", "value": "did not induce any changes"}, {"measurement": "neuroprotective effect (TH neuron survival) in presence of nNOS pathway inhibitor", "setting": "CR777 10 nM + L-NAME (100 μM), 6-OHDA 20 μM", "value": "did not induce any changes"}, {"measurement": "neuroprotective effect (TH neuron survival) in presence of PPARγ pathway inhibitor", "setting": "CR777 10 nM + T0070907 (1 μM), 6-OHDA 20 μM", "value": "no effect was observed"}, {"measurement": "TH positive neuron survival", "setting": "CR777 10 nM added 1 h before 6-OHDA (20 μM, 48 h), bell shape curve", "value": "significantly protected neurons from death; also recorded: significant protective effect; also recorded: able to protect TH positive neurons"}, {"measurement": "α-syn aggregation in TH positive neurons", "setting": "CR777 10 and 100 nM, 6-OHDA 20 μM, 48 h", "value": "able to reduce the aggregation; also recorded: partially protected"}, {"measurement": "dopaminergic neurite network", "setting": "all concentrations tested (1 nM to 1 μM), 6-OHDA 20 μM, 48 h", "value": "significant protective effect"}]}
